Data: patent US8957075B2, “O-GlcNAc transferase inhibitors and uses thereof” (priority 2009, dated 2015)

Key:
sOGT [1] = target: T1, sOGT (Homo sapiens (Human), UniProt O15294); experiment: Fluorescence polarization screen of quinolinesulfonamide library for OGT inhibition (displacement of fluorescein-linked UDP-GlcNAc analog); format: binding; details: rough Ki values from fluorescence polarization results and Kd of the probe; 1-2 μM sOGT, 50 nM probe
Method: Compound libraries of the 4 concentrations in duplicated were then transferred to the assay plates using a 100 nL pin array, resulting in a final compound concentration of 25 μg/mL or ˜70 μM at the highest of the four concentrations, assuming an average compound MW of 350. Using a Perkin Elmer Envision® microplate reader, the sample was excited at 480 nm in the vertical plane, and simultaneous emission intensity (535 nm) of the vertical and horizontal polarization planes was measured. The polarization was calculated using the following equation: eq4: mP=1000*(V−G*H)/(V+G*H) where: mP=millipolarization units, V=intensity of vertically polarized emission (RFU), H=intensity of horizontally polarized emission (RFU), and G=gain.

sOGT [2] = target: T1, sOGT; experiment: Secondary assay: transfer of UDP-14C-GlcNAc to casein kinase II derived peptide by sOGT; format: biochemical; details: 500 μM peptide, 6.25 μM UDP-14C-GlcNAc, ~20-40 nM sOGT; read-out: IC50 (OGT inhibition)
Method: Hits were examined in a secondary assay involving the transfer of UDP-^14C-GlcNAc to a peptide derived from casein kinase II, which contains a known OGT glycosylation site, as described by Hart and co-workers (see manuscript, reference 4). Three lysines and a tyrosine were added to the N-terminus of this peptide substrate ([sequence]) to allow capture on phosphocellulose discs and UV detection, respectively. […] Reactions were spotted on Whatman P81 phosphocellulose discs, washed three times for five minutes in 1% phosphoric acid, and counted by liquid scintillation counting. IC50s curves were determined from the counts of the reactions and IC50s were determined.

HEK293 cells = experiment: Glucosamine-induced cellular-wide O-GlcNAcylation changes in HEK cells (western blot, CTD110.6 antibody); format: cell-based; details: 12.5 μM compound, 4 mM glucosamine, 16 hours
Method: The efficacy of the inhibitor in cell culture was evaluated by adding compound N08 to HEK293 cells.HEK293 cells were grown in 6 well plates using low glucose (5 mM) DMEM with 10% FBS as the media. […] After mixing the compounds the media was removed from the cultured cells and the inhibitor-media solutions was added to the cells. After cells were incubated with the inhibitors for 16 hours (overnight), the cells were rinsed with PBS, removed using cell scrapers, transferred to 1.5 ml microcentrifuge tubes, pelleted by centrifugation, and lysed by resuspending in 100 μl RIPA buffer with protease and phosphatase inhibitor cocktails (SIGMA). After incubating on ice the debris were pelleted down, and the supernatant was collected as whole cell lysate. Total protein concentration of each sample was determined by Bradford Assay in order to normalize levels of protein loaded onto a gel. Then 2×SDS-PAGE sample buffer was added to each sample, they were boiled for 10 minutes, and loaded onto a denaturing polyacrylamide gel (4-20% gradient), transferred to nitrocellulose membrane, blocked with 1% BSA for 1 hour, and probed with the monoclonal O-GlcNAc antibody, CTD110.6 (Covance), incubated at a 1:5000 dilution in 1% BSA overnight at 4° C., followed by addition of anti-mouse HRP secondary antibody. Pierce SuperSignal West Pico Chemiluminescent substrate was added to perform the western blot.

T1 sequence (O15294 382-1046, species assumed): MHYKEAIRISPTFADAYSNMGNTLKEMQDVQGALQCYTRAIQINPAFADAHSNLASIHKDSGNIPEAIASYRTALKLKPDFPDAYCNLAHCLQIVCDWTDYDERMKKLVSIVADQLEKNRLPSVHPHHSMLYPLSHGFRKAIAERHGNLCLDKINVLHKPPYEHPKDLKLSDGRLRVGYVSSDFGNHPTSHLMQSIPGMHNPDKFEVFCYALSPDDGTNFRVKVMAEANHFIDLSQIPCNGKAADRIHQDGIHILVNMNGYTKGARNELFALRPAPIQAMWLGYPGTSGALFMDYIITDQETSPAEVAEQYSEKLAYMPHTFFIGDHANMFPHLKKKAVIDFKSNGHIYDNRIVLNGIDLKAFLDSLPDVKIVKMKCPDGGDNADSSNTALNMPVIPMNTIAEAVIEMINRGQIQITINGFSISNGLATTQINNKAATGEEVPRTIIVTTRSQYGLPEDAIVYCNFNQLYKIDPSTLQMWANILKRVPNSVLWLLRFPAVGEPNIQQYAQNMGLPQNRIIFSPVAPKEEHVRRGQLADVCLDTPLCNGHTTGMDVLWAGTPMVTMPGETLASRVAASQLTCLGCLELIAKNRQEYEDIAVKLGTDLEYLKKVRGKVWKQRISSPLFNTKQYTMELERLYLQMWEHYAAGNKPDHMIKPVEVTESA

SMILES	Ki (sOGT [1])	also measured
O=C1CCc2cc(S(=O)(=O)NC(C(=O)N3CCC(Cc4ccccc4)CC3)c3ccccc3)ccc2N1 (stereo not shown)	2 µM	–
COc1cc2c(cc1OC)C(C)N(S(=O)(=O)c1ccc3[nH]c(=O)ccc3c1)CC2 (stereo not shown)	50 µM	–
Cc1ccc(N2CCN(C(=O)C(NS(=O)(=O)c3ccc4c(c3)CCC(=O)N4)c3ccccc3)CC2)cc1 (stereo not shown)	9 µM	–
O=C(C(NS(=O)(=O)c1ccc2[nH]c(=O)ccc2c1)c1ccccc1)N(Cc1ccco1)Cc1cccs1 (stereo not shown) [drawing 100]	0.4 µM	–
O=C1CCc2cc(S(=O)(=O)NC(C(=O)N3CCN(C(=O)c4ccco4)CC3)c3ccccc3)ccc2N1 (stereo not shown)	11 µM	–
O=C(O)CC(NS(=O)(=O)c1ccc2c(c1)CCC(=O)N2)c1cccc(Cl)c1 (stereo not shown)	15 µM	–
O=C1CCc2cc(S(=O)(=O)NC(C(=O)NCc3ccccc3)c3ccccc3)ccc2N1 (stereo not shown)	125 µM	–
COc1ccc(NS(=O)(=O)c2ccc3[nH]c(=O)ccc3c2)cc1OC	7.2 µM	–
O=C1CCc2cc(S(=O)(=O)NC(C(=O)N3CCN(C4CCCCC4)CC3)c3ccccc3)ccc2N1 (stereo not shown)	20 µM	–
CCN(CC)C(=O)C(NS(=O)(=O)c1ccc2c(c1)CCC(=O)N2)c1ccccc1 (stereo not shown)	21 µM	–
CN(Cc1ccco1)C(=O)C(Cc1ccccc1)NS(=O)(=O)c1ccc2c(c1)CCC(=O)N2 (stereo not shown)	13 µM	–
Cc1cc(C)c(NC(=O)C(NS(=O)(=O)c2ccc3c(c2)CCC(=O)N3)c2ccccc2)c(C)c1 (stereo not shown)	5.6 µM	–
Cc1cccc(N(C)C(=O)C(NS(=O)(=O)c2ccc3c(c2)CCC(=O)N3)c2ccccc2)c1 (stereo not shown)	7.4 µM	–
O=C1CCc2cc(S(=O)(=O)NC(C(=O)N3CCN(c4ccccn4)CC3)c3ccccc3)ccc2N1 (stereo not shown)	4.2 µM	–
Cc1ccc(NC(=O)C(NS(=O)(=O)c2ccc3c(c2)CCC(=O)N3)c2ccccc2)c(Br)c1 (stereo not shown)	52 µM	–
CC(c1cccs1)N(Cc1ccco1)C(=O)C(NS(=O)(=O)c1ccc2c(c1)CCC(=O)N2)c1ccccc1 (stereo not shown)	1.6 µM	–
CC(C)N(Cc1ccccc1)C(=O)C(NS(=O)(=O)c1ccc2c(c1)CCC(=O)N2)c1ccccc1 (stereo not shown) [drawing 98]	7 µM	–
O=C1CCc2cc(S(=O)(=O)NC(C(=O)NCc3ccc(Cl)cc3)c3ccccc3)ccc2N1 (stereo not shown)	6.6 µM	–
CCOc1ccccc1NS(=O)(=O)c1ccc2[nH]c(=O)ccc2c1	4.7 µM	–
O=C1CCc2cc(S(=O)(=O)NC(C(=O)N(Cc3ccco3)Cc3cccs3)c3ccccc3)ccc2N1 (stereo not shown)	4 µM	–
COc1cccc(N2CCN(C(=O)C(NS(=O)(=O)c3ccc4c(c3)CCC(=O)N4)c3ccccc3)CC2)c1 (stereo not shown)	6.3 µM	–
CC(C)N(Cc1ccccc1)C(=O)C(NS(=O)(=O)c1ccc2c(c1)CCC(=O)N2)c1ccccc1 (stereo not shown) [drawing 86]	5.7 µM	–
CN(CC(=O)Nc1nc2ccc(Cl)cc2s1)S(=O)(=O)c1ccc2[nH]c(=O)ccc2c1	60 µM	–
O=C(C(NS(=O)(=O)c1ccc2[nH]c(=O)ccc2c1)c1ccccc1)N(Cc1ccco1)Cc1cccs1 (stereo not shown) [Example 3, N-(furan-2-ylmethyl)-2-(2-oxo-1,2-dihydroquinoline-6-sulfonamido)-2-phenyl-N-(thiophen-2-ylmethyl)acetamide]	–	IC50 (sOGT [2]): 0.39 µM; Effect on glucosamine-induced cellular-wide O-GlcNAcylation (HEK293 cells): reduces glucosamine-induced cellular-wide O-GlcNAcylation changes to normal levels
CCc1cccc(C)c1NC(=O)C(NS(=O)(=O)c1ccc2c(c1)CCC(=O)N2)c1ccccc1 (stereo not shown)	97 µM	–
Cc1ccc(N2CCN(C(=O)C(NS(=O)(=O)c3ccc4c(c3)CCC(=O)N4)c3ccccc3)CC2C)cc1 (stereo not shown)	3.2 µM	–
Cc1cccc(C)c1NC(=O)C(NS(=O)(=O)c1ccc2c(c1)CCC(=O)N2)c1ccccc1 (stereo not shown)	37 µM	–
